# Experiments:
# [1] = test system: amyloid plaques; assay: Aβ immunohistochemistry, amyloid plaque load in APPKI mice; assay type: in vivo, mouse; conditions: 13 month-old APPKI mice; i.p. 10 mg/kg three times per week for 8 weeks
# [2] = test system: APPKIGFP and WTGFP mice; assay: Contextual fear conditioning test; assay type: in vivo, mouse; conditions: i.p. 10 mg/kg
# [3] = In vitro metabolism in liver S9 fractions; assay type: in vitro ADME, mouse; conditions: phase I cofactors (NADPH regenerating system); 2 μM
# Method: FIGS. 12A-D. NSN21778 in vitro metabolism stability, in vivo plasma pharmacokinetics, and side effect on body weight (Related to FIGS. 7A-G). (FIG. 12A) The metabolic stability of NSN21778 was evaluated in vitro after incubation with commercial liver S9 fractions in the presence of phase I (NADPH regenerating system) cofactors. Compound levels were determined by LC-MS/MS. Additionally, the stability of NSN21778 in the presence of commercial CD-1 mouse plasma was measured. (FIG. 12B) NSN21778 was dosed i.p. at 10 mg/kg to female CD-1 mice. Levels of NSN21778 in plasma and brain were evaluated by LC-MS/MS. (FIG. 12C) WTGFP, PS1KIGFP and APPKIGFP mice body weight after i.p. administrated with control solution or 10 mg/kg NSN21778 for 10 weeks. Data presented as mean±SE (n=5 mice). (FIG. 12D) Body weight gained for various treatments.
# In vitro metabolism assays. Female ICR/CD-1 mouse S9 fractions were purchased from Celsis/In Vitro Technologies (Baltimore, Md.). 25 μl (0.5 mg) of S9 protein was added to a 15 ml glass screw cap tube. […] The supernatant was analyzed by LC-MS/MS. Stability in commercial mouse CD-1 plasma (Bioreclamation, Westbury, N.Y.) was measured in a similar fashion. […] Reactions were quenched with methanol as above and supernatants evaluated by LC-MS/MS. Compound half-life was determined by the method of substrate depletion as described (McNaney et al., 2008).
# [4] = test system: mushroom spines in hippocampal CA1 neurons; assay: Dendritic spine analysis in mice hippocampus after i.p. treatment; assay type: in vivo, mouse; conditions: i.p. 10 mg/kg for 10 weeks
# [5] = test system: spine nSOC channels; assay: GCamp5.3 Ca2+ imaging of synaptic nSOC in cultured hippocampal neurons; assay type: cell-based, mouse
smiles,measurement,setting,value
"CC(=O)Nc1ccc(CCNc2ncnc3ccc(N)cc23)cc1 [NSN21778, N-{4-[2-(6-Amino-quinazolin-4-ylamino)-ethyl]-phenyl}-acetamide]",plaque intensity,[1],significant reduction
same,total plaque area,[1],significant reduction
same,contextual fear conditioning phenotype,[2]; 6.5 month-old APPKIGFP mice,fully rescued
same,contextual fear conditioning responses,"[2]; WTGFP mice, difference to control not statistically significant",somewhat impaired responses
same,metabolic stability in liver S9 fractions,[3],generally stable
same,mushroom spine deficiency in vivo,[4]; PS1KIGFP and APPKIGFP mice,rescue of mushroom spine deficiency
same,mushroom spines in vivo,[4]; WTGFP mice,no effect
same,spine nSOC,"[5]; PS1KI and APPKI hippocampal neurons, 300 nM applied prior to Ca2+ re-addition",rescued spine nSOC
same,spine nSOC,"[5]; wild-type spines, 300 nM",no significant effect
same,toxicity in injected mice,"i.p. 10 mg/kg 3 times per week, WTGFP, PS1KIGFP and APPKIGFP mice",not observed any obvious toxicity
same,body weight,"i.p. 10 mg/kg, following 10 weeks treatment",some weight loss
